Results on five molecules are retold here after patent US20250051277A1, “DELIVERY OF THERAPEUTIC ALKALOID COMPOUNDS” (Sensorium Therapeutics, Inc., priority 2021, published 2025).

Like-named read-outs stand apart in the source and are kept apart here.

Data set [1] is described as follows: Plasma Stability Assay of Example A4, rat plasma. Particulars: 37° C., 10 μM.
Data set [2] is described as follows: Plasma Stability Assay of Example A3, human plasma. Particulars: 5 μM, 37° C., % of prodrug compound remaining.
Data set [3] in a line: Pharmacokinetics of 043 and 001 in mice after oral 043 (75 mg/kg). It is filed as in vivo, male C57BL/6 mice. The following applies: for Brain concentrations quantifiable up to / brain exposure-Kp / AUClast / Cmax / Tmax: analyte = label, single oral administration of 043, 75 mg/kg, male C57BL/6 mice. As to the method: Total twelve male mice were used in this study. […] The formulation vehicle used was normal saline.
The plasma and brain concentration-time data of 043 and 001 was used for the pharmacokinetic analysis.
The extraction procedure for plasma/brain samples and the spiked plasma/brain calibration standards were identical:
A 25 μL of study sample plasma/brain (dilution applied to some samples) or spiked plasma calibration standard was added to individual pre-labeled micro-centrifuge tubes followed by 100 μL of internal standard prepared in acetonitrile (Glipizide-500 ng/mL) was added except for blank, where 100 μL of acetonitrile was added. Samples were vortexed for 5 minutes. Samples were centrifuged for 10 minutes at a speed of 4000 rpm at 4° C. Following centrifugation, 100 μL of clear supernatant was transferred in 96 well plates and analyzed using LC-MS/MS.

Data set [4] is described as follows: Hydrolysis Assay of Example A1 (conversion by LCMS). It is filed as physicochemical. The following applies: for Conversion (%) / Notes (hydrolysis): 0.5 mM, 0-24 h.
How the values of data set [5] were obtained:
Male C57/BL6 mice were used to evaluate each compound, with n=3 mice/time point.
Animals were administered through intravenous route with solution formulation at 2 mg/kg dose. […] Following blood collection, immediately, animals were sacrificed, and vena-cava was cut open and blood was drained. […] Brain samples were collected from set of three mice at each time point. […] Brain samples were homogenized using 2 volumes of ice-cold PBS (pH-7.4) of brain weight. […] Concentrations of compound (or compound and metabolite) in mouse plasma and brain samples were determined by fit for purpose LC-MS/MS method.

Data set [6] can be described thus: Plasma Stability Assay of Example A3, mouse plasma. Particulars: 5 μM, 37° C., % of prodrug compound remaining.
A short description of data set [7]: Plasma Stability Assay of Example A4, human plasma. Particulars: 37° C., 10 μM.
Description: 50 μL aliquots of positive controls and test compounds spiked into rat or human plasma (n=2) were added to a pre-warmed plate (37° C.) and shaken at 50 rpm. At each respective time point, the reaction was stopped by adding 500 μL of acetonitrile containing internal standards (100 nM aprozolam, 200 nM caffeine, 100 nM tolbutamide). All samples were vortexed for 10 minutes, followed by centrifugation at 3,220 g for 30 minutes to precipitate proteins. 100 μL of the supernatant is transferred to a new plate. The supernatant will be diluted with ultrapure water according to the LC-MS signal response and peak shape.
For data set [8] the following is noted: for 001 brain levels quantifiable up to: rat. As to the method:
Brain samples were homogenized with PBS (W/V, 1:3). Plasma/brain samples were mixed with acetonitrile containing internal standard. The samples were vortexed then centrifuged at 4 degrees Celsius for 15 minutes. The supernatant was diluted with water (1:2 V/V) and analyzed by LC/MS/MS for quantitative analysis. […] Area under the curve (AUC) was calculated and divided by dose to account for molecular weight difference of prodrug and metabolite (AUC/D).

A short description of data set [9]: Oral dose pharmacokinetic study in mice (10 mg/kg). It is filed as in vivo, male C57BL/6 mice. From the text: The formulation vehicle used was normal saline.
Another data set has as its target SERT (Homo sapiens (Human), UniProt P31645). It is filed as cell-based. Particulars: stable 5HTT cells, 30 minutes at 37° C.
Data set [10] is classed as physicochemical. The following applies: SGF with pepsin, pH 1.5, 37° C., 0.5 mM.
The conditions of data set [11]: in vivo; cited from earlier work.
Where [12] appears, read: 2 mg/kg iv of labelled compound, mice.
Setting [13] is: 10 mg/kg po of labelled compound, mice.

As to `COc1ccc([C@@]23CCC(=O)C[C@@H]2N(C)CC3)cc1OC` [Compound 001, mesembrine, reference compound], the “Compound 001 (%) (metabolite mesembrine), Rat Plasma” value was 100.0% in data set [1] (time 0.0 min); more than 99% in [1] (time 10 min); more than 99% in [1] (time 30 min); 97.3% in data set [1] (time 60 min); more than 99% in [1] (time 120 min); 98.3% in [1] (time 240 min). The “Human Plasma Prodrug (%)” value is recorded as 100.0% in [2] (0 min); more than 99% in [2] (15 min); more than 99% in data set [2] (30 min); more than 99% in data set [2] (60 min); more than 99% in data set [2] (120 min); more than 99% in data set [2] (240 min). For the same molecule, the “Brain concentrations quantifiable up to” value in [3] was found to be 4 h. Further, the “brain exposure-Kp” value in [3] worked out at 2.55. Further, the AUClast in data set [3] (brain) came to 498.04 ng·h/mL; in data set [3] (plasma), 195.38 ng·h/mL. Besides, the Cmax in data set [3] (brain) worked out at 602.12 ng/mL; in data set [3] (plasma) it was 230.83 ng/mL. Moreover, the time to peak (Tmax) in data set [3] (brain) and in data set [3] (plasma) was 30 min throughout. For the same molecule, the “hydrolysis in the Hydrolysis Assay” value in data set [4] (pH 2.0 in 0.01 M HCl to pH 7.4 in 20 mM PBS, 25° C. to 40° C.) is on record as “did not further hydrolyze”. The “Conversion (%)” value in [4] (pH = 2.0, 25° C., 0.01M HCl) was determined as 0%; in data set [4] (pH = 2.0, 40° C., 0.01M HCl), 0%; in data set [4] (pH = 7.4, 25° C., PBS (20 mM)), 0%; in [4] (pH = 7.4, 40° C., PBS (20 mM)), 0%. The “Notes (hydrolysis)” value is “Stable” in data set [4] (pH = 2.0, 25° C., 0.01M HCl); “Stable” in [4] (pH = 2.0, 40° C., 0.01M HCl); “Stable” in data set [4] (pH = 7.4, 25° C., PBS (20 mM)); “Stable” in [4] (pH = 7.4, 40° C., PBS (20 mM)). The “quantifiable levels of 001 in brain up to” value in [5] (setting [12]) was found to be 60 min. Further, the “quantifiable levels of 001 in plasma up to” value in data set [5] (setting [12]) came to 30 min. Further, the “Plasma levels of 001” value in [5] (at 60, 120, 180 min, 2 mg/kg iv of 001, mice) is given as “not detectable”; in data set [9] (at 180 min, 10 mg/kg po of 001, mice), “not detectable”. For the same molecule, the “Brain levels of 001” value is “not detectable” in [5] (at 120, 180 min, 2 mg/kg iv of 001, mice) and “not detectable” in data set [9] (at 90, 120, 180 min, 10 mg/kg po of 001, mice). In addition, the “Mouse Plasma Prodrug (%)” value in data set [6] (0 min) is 100.0%; in data set [6] (15 min) it was more than 99%; in data set [6] (30 min) it was 97.8%; in data set [6] (60 min) it was more than 99%; in data set [6] (120 min) it was more than 99%; in data set [6] (240 min) it was more than 99%. Also, the “Compound 001 (%) (metabolite mesembrine), Human Plasma” value is 100.0% in [7] (time 0.0 min); more than 99% in [7] (time 10 min); more than 99% in data set [7] (time 30 min); more than 99% in data set [7] (time 60 min); more than 99% in data set [7] (time 120 min); more than 99% in [7] (time 240 min). Further, the “001 brain levels quantifiable up to” value in data set [8] (2 mg/kg iv of labelled compound) was 2 h. The “001 quantifiable in brain up to” value in data set [9] (setting [13]) is on record as 60 min. In data set [9] (setting [13]), the “001 quantifiable in plasma up to” value was found to be 2 h. Further, the “bioavailability (% F)” value in data set [9] (mice, oral 10 mg/kg) is less than 10%.
With `COc1ccc([C@]23CCN(C)[C@H]2CC2(CC3)OCCO2)cc1OC` [Compound 043], the IC50 against SERT is less than 50 nM. Moreover, the “Condition 1 Conversion (%)” value in data set [10] (time 1 min), in data set [10] (time 5 min), in data set [10] (time 30 min), in data set [10] (time 1 h), in data set [10] (time 4 h) and in data set [10] (time 24 h) was 0% each time. The “conversion of prodrug to 001 in vivo” value in data set [3] (75 mg/kg po in mice) is on record as “efficiently converts to 001 in vivo”. The “Brain concentrations quantifiable up to” value in [3] was 4 h. Further, the “brain exposure-Kp” value in data set [3] is given as less than 1. Besides, the figures for the AUClast in [3] (brain) and in [3] (plasma) were 1787.23 ng·h/mL and 2555.07 ng·h/mL, respectively. The Cmax in [3] (brain) came out at 2684.81 ng/mL; in [3] (plasma), 3392.53 ng/mL. Besides, the Tmax in [3] (brain) and in data set [3] (plasma) was 30 min throughout.
At SERT, `COc1ccc([C@@]23CCN(C)[C@@H]2CC2(CC3)SCCS2)cc1OC` [Compound 046, (3′aR,7′aR)-3′a-(3,4-dimethoxyphenyl)-1′-methyl-spiro[1,3-dithiolane-2,6′-2,3,4,5,7,7a-hexahydroindole]] came in with an IC50 of 100 to 500 nM. Also, the “Condition 1 Conversion (%)” value in data set [10] (time 1 min), in [10] (time 5 min), in [10] (time 30 min), in data set [10] (time 1 h), in [10] (time 4 h) and in [10] (time 24 h) was 0% each time.
Turning to `CCC(C)CC(=O)OC1=C[C@@H]2N(C)CC[C@]2(c2ccc(OC)c(OC)c2)CC1` (stereo partly drawn) [Compound 316, [(3aS,7aS)-3a-(3,4-dimethoxyphenyl)-1-methyl-3,4,5,7a-tetrahydro-2H-indol-6-yl]3-methyl pentanoate], the “conversion of prodrug to 001 in vivo” value in [8] (2 mg/kg iv in rat) is “converts to 001 in vivo in rat”. In data set [8] (in vivo), the “001 brain levels quantifiable up to” value came out at 3 h.
(−) mesembrine: in data set [11], the half-life in plasma entry was “less than 2 hours”.
